Experimental data taken from US7750155B2, “Pyrazinyl hydroxyacrylamide compounds having an inhibitory effect on the activity of histone deacetylase” (Astellas Pharma Inc., priority 2006, dated 2010).
Where a name gives a salt, the structure may show the parent alone.

Tests used:
[1] = test system: T1, human histone deacetylase partially purified from human T cell leukemia Jurkat cells; assay: Test 1: Determination of histone deacetylase inhibitor activity ([3H]acetyl histone deacetylation); type: biochemical; conditions: partially purified human HDAC from Jurkat cells, [3H]acetyl histone substrate, 25° C., 30 minutes; read-out: Test 1: HDAC inhibitory activity IC50
T1 construct: The human histone deacetylase was partially purified from human T cell leukemia Jurkat cells
Method: Test 1: Determination of Histone Deacetylase Inhibitor Activity
The partial purification of human histone deacetylase, the preparation of [^3H] acetyl histones, and the assay for histone deacetylase activity were performed basically according to the method as proposed by Yoshida et al. as follows.
Partial Purification of Human Histone Deacetylase
The human histone deacetylase was partially purified from human T cell leukemia Jurkat cells. Jurkat cells (5×10^8 cells) were suspended in 40 mL of the HDA buffer consisting of 15 mM potassium phosphate, pH 7.5, 5% glycerol and 0.2 mM EDTA. After homogenization, nuclei were collected by centrifugation (35,000×g, 10 min) and homogenized in 20 mL of the same buffer supplemented with 1 M (NH4)2SO4. The viscous homogenate was sonicated and clarified by centrifugation (35,000×g, 10 min), and the deacetylase was precipitated by raising the concentration of (NH4)2SO4 to 3.5 M. The precipitated protein was dissolved in 10 mL of the HDA buffer and dialyzed against 4 liters of the same buffer. The dialyzate was then loaded onto a DEAE-cellulose (Whatman DE52) column (25×85 mm) equilibrated with the same buffer and eluted with 300 mL of a linear gradient (0-0.6 M) of NaCl. A single peak of histone deacetylase activity appeared between 0.3 and 0.4 M NaCl.
Preparation of [^3H] Acetyl Histone
To obtain [^3H] acetyl-labeled histone as the substrate for the histone deacetylase assay, 1×10^8 cells of Jurkat in 20 mL of RPMI-1640 medium (supplemented with 10% FBS, penicillin (50 units/mL) and streptomycin (50 μg/mL)) were incubated with 300 MBq [^3H] sodium acetate in the presence of 5 mM sodium butyrate for 30 minutes in 5% CO2-95% air atmosphere at 37° C. in a […] flask, harvested into a centrifuge tube (50 mL), collected by centrifugation at 1000 rpm for 10 minutes, and washed once with phosphate-buffered saline. The washed cells were suspended in 15 mL of ice-cold lysis buffer (10 mM Tris-HCl, 50 mM sodium bisulfite, 1% Triton X-100, 10 mM MgCl2, 8.6% sucrose, pH 6.5). After Dounce homogenization (30 stroke), the nuclei were collected by centrifugation at 1000 rpm for 10 minutes, washed 3 times with 15 mL of the lysis buffer, and once with 15 mL of ice-cooled washing buffer (10 mM Tris-HCl, 13 mM EDTA, pH 7.4) successively. The pellet was suspended in 6 mL of ice-cooled water using a mixer, and 68 μl of H2SO4 was added to the suspension to give a concentration of 0.4 N. After incubation at 4° C. for 1 hour, the suspension was centrifuged for 5 minutes at 15,000 rpm, and the supernatant was taken and mixed with 60 mL of acetone. After overnight incubation at −20° C., the coagulated material was collected by microcentrifugation, air-dried, and stored at −80° C.
Assay for Histone Deacetylase Activity
For the standard assay, 10 μl of [^3H] acetyl-labeled histones were added to 90 μl of the enzyme fraction, and the mixture was incubated at 25° C. for 30 minutes. The reaction was stopped by addition of 10 μl of HCl. The released [^3H] acetic acid was extracted with 1 mL of ethyl acetate, and 0.9 mL of the solvent layer was taken into 10 mL of toluene scintillation solution for determination of radioactivity.

[2] = test system: splenic cells of Lewis rats (T lymphocyte blastogenesis); assay: Test 2: T-cell growth inhibitor activity (T lymphocyte blastogenesis, Concanavalin A, AlamarBlue); type: cell-based; conditions: Lewis rat splenic cells, Concanavalin A 1 μg/mL, 72 hours, read-out: Test 2: T-cell growth inhibitory activity IC50
Method: Test 2: Determination of T-Cell Growth Inhibitor Activity
The T lymphocyte blastogenesis test was performed in microtiter plates with each well containing 1.5×10^5 splenic cells of Lewis rats in 0.1 mL RPMI-1640 medium supplemented with 10% fetal bovine serum (FBS), […] 2-mercaptoethanol, penicilln (100 units/mL) and streptomycin (100 μg/mL), to which Concanavalin A (1 μg/mL) was added. The cells were incubated at 37° C. in a humidified atmosphere of 5% CO2 for 72 hours. After the culture period, suppressive activities of the test compounds in T lymphocyte blastogenesis were quantified by AlamarBlue (trademark) Assay. The test samples were dissolved in DMSO and further diluted with RPMI-1640 medium and added to the culture. The activities of the test compounds were expressed as IC50.

SMILES	IC50 [1]	IC50 [2]
O=C(/C=C/c1cnc(N[C@@H]2CCN(CCc3ccccc3Cl)C2)cn1)NO [Example 22, (2E)-3-[5-({(3R)-1-[2-(2-chlorophenyl)ethyl]-3-pyrrolidinyl}amino)-2-pyrazinyl]-N-hydroxyacrylamide dihydrochloride]	0.87 nM	1.3 nM
O=C(/C=C/c1cnc(N[C@@H]2CCN(CCC3CCCC3)C2)cn1)NO [Example 20, (2E)-3-(5-{[(3R)-1-(2-cyclopentylethyl)-3-pyrrolidinyl]amino}-2-pyrazinyl)-N-hydroxyacrylamide dihydrochloride]	0.79 nM	2.1 nM
O=C(/C=C/c1cnc(N[C@@H]2CCN(CCCC3CCCCC3)C2)cn1)NO [Example 29, (2E)-3-[5-({(3R)-1-(3-cyclohexylpropyl)-3-pyrrolidinyl}amino)-2-pyrazinyl]-N-hydroxyacrylamide dihydrochloride]	6.5 nM	3.3 nM
O=C(/C=C/c1cnc(N[C@@H]2CCN(CC3(CO)CCCCC3)C2)cn1)NO [Example 13, (2E)-N-hydroxy-3-(5-{[(3R)-1-{[1-(hydroxymethyl)cyclohexyl]methyl}-3-pyrrolidinyl]amino}-2-pyrazinyl)acrylamide dihydrochloride]	1.9 nM	4.7 nM
O=C(/C=C/c1cnc(N[C@@H]2CCCN(CCc3ccc(F)cc3F)C2)cn1)NO [Example 8, (2E)-3-[5-({(3R)-1-[2-(2,4-difluorophenyl)ethyl]-3-piperidinyl}amino)-2-pyrazinyl]-N-hydroxyacrylamide dihydrochloride]	1.7 nM	1.1 nM
O=C(/C=C/c1cnc(N[C@@H]2CCN(CCc3cccs3)C2)cn1)NO [Example 4, (2E)-N-hydroxy-3-[5-({(3R)-1-[2-(2-thienyl)ethyl]-3-pyrrolidinyl}amino)-2-pyrazinyl]acrylamide dihydrochloride]	3.6 nM	1.2 nM
O=C(/C=C/c1cnc(N[C@@H]2CCN(CC3CCCC3)C2)cn1)NO [Example 12, (2E)-3-(5-{[(3R)-1-(cyclopentylmethyl)-3-pyrrolidinyl]amino}-2-pyrazinyl)-N-hydroxyacrylamide dihydrochloride]	0.59 nM	2 nM
O=C(/C=C/c1cnc(N[C@@H]2CCCN(CCC3CCCC3)C2)cn1)NO [Example 24, (2E)-3-(5-{[(3R)-1-(2-cyclopentylethyl)-3-piperidinyl]amino}-2-pyrazinyl)-N-hydroxyacrylamide dihydrochloride]	0.81 nM	2.4 nM
O=C(/C=C/c1cnc(N[C@@H]2CCCN(CCCc3ccccc3)C2)cn1)NO [Example 17, (2E)-N-hydroxy-3-[5-[{(3R)-1-(3-phenylpropyl)-3-piperidinyl}amino]-2-pyrazinyl]acrylamide dihydrochloride]	3.3 nM	5 nM
O=C(/C=C/c1cnc(N[C@@H]2CCN(CC34CCC(CC3)O4)C2)cn1)NO [Example 14, (2E)-N-hydroxy-3-(5-{[(3R)-1-(7-oxabicyclo[2.2.1]hept-1-ylmethyl)-3-pyrrolidinyl]amino}-2-pyrazinyl)acrylamide dihydrochloride]	3.8 nM	1.2 nM
O=C(/C=C/c1cnc(N[C@@H]2CCN(CCc3ccc(F)cc3F)C2)cn1)NO [Example 2, (2E)-3-[5-({(3R)-1-[2-(2,4-difluorophenyl)ethyl]-3-pyrrolidinyl}amino)-2-pyrazinyl]-N-hydroxyacrylamide dihydrochloride]	1.5 nM	2.3 nM

Continued by falling IC50 [1], values first:

IC50 [1]	SMILES	IC50 [2]
6.6 nM	O=C(/C=C/c1cnc(N[C@@H]2CCN(Cc3cccc4ccccc34)C2)cn1)NO [Example 16, (2E)-N-hydroxy-3-[5-[{(3R)-1-(1-naphthylmethyl)-3-pyrrolidinyl}amino]-2-pyrazinyl]acrylamide dihydrochloride]	4.1 nM
4.4 nM	COc1ccc(F)cc1CN1CC[C@@H](Nc2cnc(/C=C/C(=O)NO)cn2)C1 [Example 15, (2E)-3-(5-{[(3R)-1-(5-fluoro-2-methoxybenzyl)-3-pyrrolidinyl]amino}-2-pyrazinyl)-N-hydroxyacrylamide dihydrochloride]	6.4 nM
4.2 nM	CC(C)(CN1CC[C@@H](Nc2cnc(/C=C/C(=O)NO)cn2)C1)c1ccccc1 [Example 28, (2E)-N-hydroxy-3-[5-[{(3R)-1-(2-methyl-2-phenylpropyl)-3-pyrrolidinyl}amino]-2-pyrazinyl]acrylamide dihydrochloride]	11 nM
3 nM	CN(C)c1ccccc1CN1CC[C@@H](Nc2cnc(/C=C/C(=O)NO)cn2)C1 [Example 10, (2E)-3-[5-({(3R)-1-[2-(dimethylamino)benzyl]-3-pyrrolidinyl}amino)-2-pyrazinyl]-N-hydroxyacrylamide trihydrochloride]	3.2 nM
2.7 nM	O=C(/C=C/c1cnc(N[C@@H]2CCN(CCc3c(F)cccc3F)C2)cn1)NO [Example 3, (2E)-3-[5-({(3R)-1-[2-(2,6-difluorophenyl)ethyl]-3-pyrrolidinyl}amino)-2-pyrazinyl]-N-hydroxyacrylamide dihydrochloride]	1.2 nM
1.5 nM	O=C(/C=C/c1cnc(N[C@@H]2CCCN(CCc3ccccc3F)C2)cn1)NO [Example 7, (2E)-3-[5-({(3R)-1-[2-(2-fluorophenyl)ethyl]-3-piperidinyl}amino)-2-pyrazinyl]-N-hydroxyacrylamide dihydrochloride]	0.79 nM
1.4 nM	O=C(/C=C/c1cnc(N[C@@H]2CCCN(CCc3ccccc3Cl)C2)cn1)NO [Example 26, (2E)-3-[5-({(3R)-1-[2-(2-chlorophenyl)ethyl]-3-piperidinyl}amino)-2-pyrazinyl]-N-hydroxyacrylamide dihydrochloride]	0.44 nM
1 nM	O=C(/C=C/c1cnc(N[C@@H]2CCCN(CCc3ccc(F)c(F)c3)C2)cn1)NO [Example 9, (2E)-3-[5-({(3R)-1-[2-(3,4-difluorophenyl)ethyl]-3-piperidinyl}amino)-2-pyrazinyl]-N-hydroxyacrylamide dihydrochloride]	1.8 nM
0.98 nM	O=C(/C=C/c1cnc(N[C@@H]2CCN(CCC3CCCCC3)C2)cn1)NO [Example 21, (2E)-3-(5-{[(3R)-1-(2-cyclohexylethyl)-3-pyrrolidinyl]amino}-2-pyrazinyl)-N-hydroxyacrylamide dihydrochloride]	2.4 nM
0.95 nM	COc1cc(CN2CC[C@@H](Nc3cnc(/C=C/C(=O)NO)cn3)C2)ccc1F [Example 11, (2E)-3-(5-{[(3R)-1-(4-fluoro-3-methoxybenzyl)-3-pyrrolidinyl]amino}-2-pyrazinyl)-N-hydroxyacrylamide dihydrochloride]	4.5 nM
0.92 nM	O=C(/C=C/c1cnc(N[C@@H]2CCCN(CCc3ccc(Cl)cc3)C2)cn1)NO [Example 27, (2E)-3-[5-({(3R)-1-[2-(4-chlorophenyl)ethyl]-3-piperidinyl}amino)-2-pyrazinyl]-N-hydroxyacrylamide dihydrochloride]	0.38 nM
